# Reference: patent US8334253B2, “Cosmetic and dermatological formulations of MNTF peptides” (Dermacare Neuroscience Institute, priority 2008, dated 2012)
# Peptide text beside a SMILES is read from it. * marks the point of attachment. Palmitoyl = CCCCCCCCCCCCCCCC(=O)*
# Test system: gamma interferon-induced NO production in epidermal keratinocytes
# Assay: Inhibition of gamma interferon-induced nitric oxide production in keratinocytes (Griess reaction)
# Format: cell-based
# Conditions: keratinocytes, 48 hours, gamma-interferon 300 U/ml
# Source text: The study method chosen is similar to that published in the reference Tsai et al. (Tsai et al, Inhibition of inflammatory nitric oxide production and epidermis damages by Saccharomycopsis Ferment Filtrate. J Dermatol Sci 2006 June 42 (3): 249-57. Laskin, Multifunctional Role of Nitric Oxide in Inflammation, Trends Endocrinol Metab 1994; 5:377-382. Lyons, Emerging Roiles of Nitric Oxide in Inflammation, Hospital Practice, Jul. 15, 1996: 69-86.)
# The objective of the study was to investigate the inhibition effect of Pal-hexapeptide (SEQ ID NO: 2, in palmitylated form) on gamma interferon-induced NO production in epidermal keratinocytes in culture.
# Anti-inflammatory effect was observed as a reduction of nitric oxide production in keratinocytes. Keratinocytes were incubated 48 hours with gamma-interferon (300 U/ml) alone (as control) or with gamma-interferon together with different concentrations (0.1 μM, 1 μM, 10 μM, 100 μM and 1000 μM) of Pal-hexapeptide. Gamma interferon plus aminoguanidine (10 mg/mL) was used as positive control. The amount of NO production was detected by Griess reaction. Nitric oxide readily oxides to nitrite in aqueous medium, and this reaction was measured as nitrite accumulation in the medium. […] The optical density of the wells were read using a Tibertek Mutiskan (MCC microplate reader at a wavelength of 540 nm, subtracting the absorbance at a reference wavelength of 620 nm.) A printout of the absorbance values was generated by the plate reader, and data were entered into an EXCEL spreadsheet for analysis. The average absorbance and standard deviations were expressed as percent of control absorbances.
smiles,measurement,setting,value
"CCCCCCCCCCCCCCCC(=O)N[C@@H](Cc1ccccc1)C(=O)N[C@@H](CO)C(=O)N[C@@H](CCCNC(=N)N)C(=O)N[C@@H](Cc1ccc(O)cc1)C(=O)N[C@@H](C)C(=O)N[C@@H](CCCNC(=N)N)C(=O)O [Pal 6 mer, Pal-FSRYAR] (Palmitoyl-FSRYAR-OH; C-terminus assumed)","nitric oxide production induced by Gamma-interferon, % of the control",0.1 μM,92%
same,"nitric oxide production induced by Gamma-interferon, % of the control",1 μM,72%
same,"nitric oxide production induced by Gamma-interferon, % of the control",10 μM,57%
same,"nitric oxide production induced by Gamma-interferon, % of the control",100 μM,24%
same,"nitric oxide production induced by Gamma-interferon, % of the control",1000 μM,31%
